Measured values as given in patent US8835462B2, “Macrocyclic picolinamides as fungicides” (Dow AgroSciences LLC, priority 2012, dated 2014).

Assays:
Assay type in all cases: in vivo
Erysiphe cichoracearum = assay: Powdery mildew of cucumber (ERYSCI) fungicidal activity; conditions: Golovinomyces cichoracearum, 24 h, 1 Day Protectant, read-out: Disease Control ERYSCI 1DP
Description: Technical grades of materials were dissolved in acetone, which were then mixed with nine volumes of water containing 110 ppm Triton X-100. The fungicide solutions were applied onto wheat seedlings using an automated booth sprayer to run-off. All sprayed plants were allowed to air dry prior to further handling. Wheat plants (variety Yuma) were grown from seed in a greenhouse in 50% mineral soil/50% soil-less Metro mix until the first leaf was fully emerged, with 7-10 seedlings per pot. These plants were inoculated with an aqueous spore suspension of Septoria tritici either prior to or after fungicide treatments. After inoculation the plants were kept in 100% relative humidity (one day in a dark dew chamber followed by two to three days in a lighted dew chamber at 20° C.) to permit spores to germinate and infect the leaf. The plants were then transferred to a greenhouse set at 20° C. for disease to develop. When disease symptoms were fully expressed on the 1st leaves of untreated plants, infection levels were assessed on a scale of 0 to 100 percent disease severity. Percent disease control was calculated using the ratio of disease severity on treated plants relative to untreated plants. Evaluation of Fungicidal Activity: Powdery Mildew of Cucumber (Erysiphe cichoracearum; Bayer Code […]) Cucumber seedlings (variety Bush Pickle) were grown in soil-less Metro mix, with one plant per pot, and used in the test when 12 to 14 days old. Plants were inoculated with a spore suspension 24 hr following fungicide treatments. After inoculation the plants remained in the greenhouse set at 20° C. until disease was fully expressed. Fungicide formulation, application and disease assessment on the sprayed leaves followed the procedures as described in the Example A.

[1] = system: Blumeria graminis f. sp. tritici; assay: Wheat powdery mildew (ERYSGT) fungicidal activity; conditions: 24 h, 1 Day Protectant, read-out: Disease Control ERYSGT 1DP
Description: Technical grades of materials were dissolved in acetone, which were then mixed with nine volumes of water containing 110 ppm Triton X-100. The fungicide solutions were applied onto wheat seedlings using an automated booth sprayer to run-off. All sprayed plants were allowed to air dry prior to further handling. Wheat plants (variety Yuma) were grown from seed in a greenhouse in 50% mineral soil/50% soil-less Metro mix until the first leaf was fully emerged, with 7-10 seedlings per pot. These plants were inoculated with an aqueous spore suspension of Septoria tritici either prior to or after fungicide treatments. After inoculation the plants were kept in 100% relative humidity (one day in a dark dew chamber followed by two to three days in a lighted dew chamber at 20° C.) to permit spores to germinate and infect the leaf. The plants were then transferred to a greenhouse set at 20° C. for disease to develop. When disease symptoms were fully expressed on the 1st leaves of untreated plants, infection levels were assessed on a scale of 0 to 100 percent disease severity. Percent disease control was calculated using the ratio of disease severity on treated plants relative to untreated plants. Evaluation of Fungicidal Activity: Wheat Powdery Mildew (Blumeria Graminis f. sp. Tritici; Synonym: Erysiphe graminis f. sp. Tritici; Bayer Code […]) Wheat plants (variety Yuma) were grown from seed in a greenhouse in 50% mineral soil/50% soil-less Metro mix until the first leaf was fully emerged, with 7-10 seedlings per pot. These plants were inoculated by dusting with infected stock plants 24 hr after fungicide treatments. After inoculation the plants were kept in a greenhouse set at 20° C. for disease to develop. Fungicide formulation, application and disease assessment on the sprayed leaves followed the procedures as described in the Example A.

[2] = system: Blumeria graminis f. sp. hordei; assay: Barley powdery mildew (ERYSGH) fungicidal activity; conditions: 24 h, 1 Day Protectant, read-out: Disease Control ERYSGH 1DP
Description: Technical grades of materials were dissolved in acetone, which were then mixed with nine volumes of water containing 110 ppm Triton X-100. The fungicide solutions were applied onto wheat seedlings using an automated booth sprayer to run-off. All sprayed plants were allowed to air dry prior to further handling. Wheat plants (variety Yuma) were grown from seed in a greenhouse in 50% mineral soil/50% soil-less Metro mix until the first leaf was fully emerged, with 7-10 seedlings per pot. These plants were inoculated with an aqueous spore suspension of Septoria tritici either prior to or after fungicide treatments. After inoculation the plants were kept in 100% relative humidity (one day in a dark dew chamber followed by two to three days in a lighted dew chamber at 20° C.) to permit spores to germinate and infect the leaf. The plants were then transferred to a greenhouse set at 20° C. for disease to develop. When disease symptoms were fully expressed on the 1st leaves of untreated plants, infection levels were assessed on a scale of 0 to 100 percent disease severity. Percent disease control was calculated using the ratio of disease severity on treated plants relative to untreated plants. Evaluation of Fungicidal Activity: Barley Powdery Mildew (Blumeria Graminis f. sp. Hordei; Synonym: Erysiphe Graminis f. sp. Hordei; Bayer Code […]) Barley seedlings (variety Harrington) were propagated in soil-less Metro mix, with each pot having 8 to 12 plants, and used in the test when first leaf was fully emerged. Test plants were inoculated by dusting with infected stock plants 24 hr after fungicide treatments. After inoculation the plants were kept in a greenhouse set at 20° C. for disease to develop. Fungicide formulation, application and disease assessment on the sprayed leaves followed the procedures as described in the Example A.

Puccinia triticina = assay: Fungicide mobility (dropline mobility test), wheat brown rust (PUCCRT); conditions: 1 ug/leaf, disease-free zone as percent of distance from marked line to leaf tip; for Dropline Mobility Test PUCCRT 1 DPM: 1 Day Protectant Mobility; for Dropline Mobility Test PUCCRT 3 DCM: 3 Day Curative Mobility
Description: Evaluation of Fungicide Mobility: Wheat Brown Rust (Puccinia Triticina; Synonym: Puccinia recondita f. sp. Tritici; Bayer Code PUCCRT):
“Yuma” wheat seedlings were used in the test. One mg of compound was dissolved in 9 μl of EC blank (emulsifiable concentrate) and 500 μl of acetone. Acetone was then evaporated overnight by leaving the vial open in a fume hood. Two milliliters of water containing 110 ppm Triton X-100 was added to each vial to prepare application solutions. A […] drop of formulated material was applied to a marked line on the adaxial surface 5 cm from the leaf tip of the primary leaves. The primary leaves were kept in a horizontal position. Each treatment had 6 replicates. Plants were inoculated with PUCCRT 1-day after (1DPM) or 3-day prior to (3DCM) compound applications. When rust was fully expressed on primary leaves on control plants, the zone of treated leaves that was disease-free in the acropetal direction was measured with a ruler and converted to percent of the distance from marked line to leaf tip.

| Structure (SMILES) | pest or weed control at 100 ppm (Erysiphe cichoracearum) | pest or weed control at 100 ppm [1] | pest or weed control at 100 ppm [2] | Dropline Mobility Test PUCCRT 1 DPM (Puccinia triticina) | Dropline Mobility Test PUCCRT 3 DCM (Puccinia triticina) |
| --- | --- | --- | --- | --- | --- |
| COc1ccnc(C(=O)N[C@H]2COC[C@H](Cc3ccccc3)[C@@H](OCC(C)C)[C@H](C)OC2=O)c1OC(C)=O [Compound 9, 2-(((3S,7S,8R,9S)-7-benzyl-8-isobutoxy-9-methyl-2-oxo-1,5-dioxonan-3-yl)carbamoyl)-4-methoxypyridin-3-yl acetate] | 80 to 100% | 80 to 100% | 80 to 100% | B (More than 0-Less than 80) | B (More than 0-Less than 80) |
| COc1ccnc(C(=O)N[C@H]2COC[C@H](Cc3ccccc3)[C@@H](OC3CCCC3)[C@H](C)OC2=O)c1OCOC(C)=O [Compound 106] | 80 to 100% |  | 80 to 100% |  |  |
| COc1ccnc(C(=O)N[C@H]2COC[C@H](Cc3ccccc3)[C@@H](OC)[C@H](C)OC2=O)c1OCOC(C)=O [Compound 39] | 0 to 80% | 0 to 80% | 0 to 80% | A (80-100) | A (80-100) |
| COc1ccnc(C(=O)N[C@H]2COC[C@H](Cc3ccccc3)[C@@H](OCC(C)C)[C@H](C)OC2=O)c1O [Compound 2, N-((3S,7S,8R,9S)-7-benzyl-8-isobutoxy-9-methyl-2-oxo-1,5-dioxonan-3-yl)-3-hydroxy-4-methoxypicolinamide] |  |  |  | B (More than 0-Less than 80) | B (More than 0-Less than 80) |
| COC(=O)/C=C/O[C@@H]1[C@@H](Cc2ccccc2)COC[C@H](NC(=O)c2nccc(OC)c2OCOC(C)=O)C(=O)O[C@H]1C [Compound 36] | 0 to 80% | 0 to 80% | 80 to 100% | B (More than 0-Less than 80) | B (More than 0-Less than 80) |
| COc1ccnc(C(=O)N[C@H]2COC[C@H](Cc3ccccc3)[C@@H](OC3CCCC3)[C@H](C)OC2=O)c1OC(C)=O [Compound 107] | 0 to 80% |  | 80 to 100% |  |  |
| COc1ccnc(C(=O)N[C@H]2COC[C@H](Cc3ccccc3)[C@@H](OCCC(C)OC)[C@H](C)OC2=O)c1OCOC(C)=O (some centres unmarked) [Compound 46] | 80 to 100% |  |  | A (80-100) | A (80-100) |
| COc1ccnc(C(=O)N[C@H]2COC[C@H](Cc3ccccc3)[C@@H](OC3CCCC3)[C@H](C)OC2=O)c1OCOC(=O)C(C)C [Compound 108] | 0 to 80% |  | 80 to 100% |  |  |
| CCCCCO[C@@H]1[C@@H](Cc2ccccc2)COC[C@H](NC(=O)c2nccc(OC)c2OCOC(C)=O)C(=O)O[C@H]1C [Compound 26] | 80 to 100% | 0 to 80% | 80 to 100% | B (More than 0-Less than 80) | B (More than 0-Less than 80) |
| COc1ccnc(C(=O)N[C@H]2COC[C@H](Cc3ccccc3)[C@@H](OCCCC(F)(F)F)[C@H](C)OC2=O)c1OCOC(C)=O [Compound 23] | 80 to 100% | 80 to 100% | 80 to 100% | B (More than 0-Less than 80) | B (More than 0-Less than 80) |
| COc1ccnc(C(=O)N[C@H]2COC[C@H](Cc3ccccc3)[C@@H](OCC(C)C)[C@H](C)OC2=O)c1OCOC(=O)C(C)(C)C [Compound 7] | 80 to 100% | 0 to 80% | 80 to 100% | B (More than 0-Less than 80) | B (More than 0-Less than 80) |
| COc1ccnc(C(=O)N[C@H]2COC[C@H](Cc3ccccc3)[C@@H](Oc3ccccc3)[C@H](C)OC2=O)c1OCOC(C)=O [Compound 40] |  | 0 to 80% |  | B (More than 0-Less than 80) | B (More than 0-Less than 80) |
| COCCCO[C@@H]1[C@@H](Cc2ccccc2)COC[C@H](NC(=O)c2nccc(OC)c2OCOC(C)=O)C(=O)O[C@H]1C [Compound 16] | 80 to 100% | 80 to 100% | 80 to 100% |  |  |
| COc1ccnc(C(=O)N[C@H]2COC[C@H](Cc3ccccc3)[C@@H](OCCCc3ccccc3)[C@H](C)OC2=O)c1OCOC(C)=O [Compound 34] | 0 to 80% | 0 to 80% | 80 to 100% | B (More than 0-Less than 80) |  |
| COc1ccnc(C(=O)N[C@H]2COC[C@H](Cc3ccccc3)[C@@H](OCC(C)C)[C@H](C)OC2=O)c1OCOC(=O)C(C)C [Compound 3] | 80 to 100% | 80 to 100% | 80 to 100% | B (More than 0-Less than 80) | B (More than 0-Less than 80) |
| COc1ccnc(C(=O)N[C@H]2COC[C@H](Cc3ccccc3)[C@@H](OCC(F)F)[C@H](C)OC2=O)c1OCOC(C)=O [Compound 44] | 0 to 80% |  |  | B (More than 0-Less than 80) | B (More than 0-Less than 80) |
| COc1ccnc(C(=O)N[C@H]2COC[C@H](Cc3ccccc3)[C@@H](OC(=O)C3CC3)[C@H](C)OC2=O)c1OCOC(C)=O [Compound 38] | 0 to 80% | 0 to 80% | 80 to 100% | B (More than 0-Less than 80) | B (More than 0-Less than 80) |
| COc1ccnc(C(=O)N[C@H]2COC[C@H](Cc3ccccc3)[C@@H](OC(=O)c3ccccc3)[C@H](C)OC2=O)c1OCOC(C)=O [Compound 37] |  | 0 to 80% | 0 to 80% | B (More than 0-Less than 80) |  |
| COc1ccnc(C(=O)N[C@H]2COC[C@H](Cc3ccccc3)[C@@H](OCCC(=O)N(C)C)[C@H](C)OC2=O)c1OCOC(C)=O [Compound 15] |  | 0 to 80% |  |  |  |
